ChEMBL document CHEMBL1147333, “Brominated indole alkaloids from the marine tunicate Pseudodistoma arborescens” (J Nat Prod, 1993)
Values after ≈ are worked out from the molar mass of the structure shown.

Test system: KB
Assay: Cytotoxicity against human KB cells
Type: functional, cell-based

CN1CCc2c3n(c4cc(Br)ccc24)[C@H](O)CCC[C@@H]31 [ARBORESCIDINE D]
IC50: 3 µg/mL (≈ 8.95 µM)
